In patent US12509460B2 (Skyhawk Therapeutics, Inc., priority 2019, dated 2025):
Like-named read-outs stand apart in the source and are kept apart here.

Assays:
[1] = test system: SMN protein in spinal muscular atrophy (SMA) patient fibroblasts (GM03813, Coriell); assay: SMN protein assay, Mesoscale Discovery (MSD); format: cell-based, human; conditions: read-out: SMN2 protein EC50
Summary of the method: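 SMA patient fibroblasts (GM03813) seeded at 7000 cells/well and exposed to compound at 2.5 μM to 0.6 nM for 48 hours. Lysates assayed for SMN by MSD immunoassay, with absolute SMN amount calculated from a per-plate SMN standard curve (1 μg/ml to 19.5 pg/ml).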

[2] = test system: SMN FL and SMN Δ7 in spinal muscular atrophy (SMA) patient fibroblasts (GM03813, Coriell); assay: Quantitative splicing assay (SMN), qPCR; format: cell-based, human; conditions: Homo sapiens, Fibroblast, 24 h, read-out: SMN2 Splicing FL EC50
Description: Spinal muscular atrophy (SMA) patient fibroblasts (GM03813, Coriell) are plated in 96-well plates at 50,000 cells/well. […] Treated cells are lysed and cDNA synthesized using the Fast Advanced Cells-to-Ct kit (Thermofisher A35378) according to the manufacturer's instructions. 2 μL of each cDNA are used in qPCR reactions. […] Reactions are run in a Quant Studio 6 qPCR instrument with default settings.

[3] = test system: mHTT protein in GM04724 (CAG 70/20) Huntington's disease patient lymphoblast cells; assay: mHTT protein assay, 2B7-MW1 assay via Mesoscale Discovery (MSD); format: cell-based, human
Summary of the method: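 Patient lymphoblasts treated 48 h with compound from 10 μM to 0.6 nM. mHTT quantified by MSD 2B7-MW1 immunoassay, whose signal depends on polyQ expansion and HTT size. Viability measured on a replicate plate by CellTiter Glo.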

[4] = Quantitative splicing assay (HTT), qPCR; format: cell-based, human; conditions: Homo sapiens, GM04724, 24 h, GM04724 lymphoblasts, read-out: HTT Splicing: E49-50 EC50
Summary of the method: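 Patient lymphoblasts (50,000 cells/well) dosed immediately after plating for 24 h at 2.5 uM to 0.15 nM in 0.1% DMSO. Lysed, cDNA made directly from cells, and inclusion of the intron 49 cryptic exon quantified by TaqMan qPCR.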

[5] = test system: MDR1 (P-gp); assay: Blood-brain-barrier (BBB) penetration potential via MDCK-MDR1 permeability assay; conditions: dog; for Papp A→B at 120 min, 5 μM: MDCK-MDR1, pH 7.4, MDCK-MDR1: Papp A-B; for Papp B→A at 120 min, 5 μM: MDCK-MDR1, pH 7.4, MDCK-MDR1: Papp B-A
[6] = test system: MDR1; assay: as above; conditions: dog, MDCK-MDR1, pH 7.4, MDCK-MDR1: Efflux
[7] = test system: MDR1-MDCK cell monolayers; assay: as above
[8] = SMA patient fibroblasts GM03813, 48 hours, MSD
[9] = SMA patient fibroblasts GM03813, 24 h, qPCR
[10] = GM04724 Huntington's disease patient lymphoblasts

Compound	EC50 [1, 8] [nM]	EC50 [2, 9] [nM]	EC50 [3, 10] [nM]	EC50 ([4]; qPCR) [nM]	Papp A→B at 120 min, 5 μM ([5]; A-B direction) [×10⁻⁶ cm/s]	Papp B→A at 120 min, 5 μM ([5]; B-A direction) [×10⁻⁶ cm/s]	efflux ratio at 120 min, 5 μM ([6]; efflux ratio)	MDCK-MDR1: % Recov A-B ([7]; A-B direction) [%]	MDCK-MDR1: % Recov B-A ([7]; B-A direction) [%]	EC50 ([1]; SMA patient fibroblasts (GM03813), 48 hours) [nM]	EC50 ([2]; SMA patient fibroblasts (GM03813)) [nM]	EC50 ([3]; GM04724 (CAG 70/20) Huntington's disease patient lymphoblasts) [nM]	EC50 [4] [nM]	Papp A→B at 120 min, 5 μM ([5]; A-B) [×10⁻⁶ cm/s]	Papp B→A at 120 min, 5 μM ([5]; B-A) [×10⁻⁶ cm/s]	efflux ratio at 120 min, 5 μM [6]	MDCK-MDR1: % Recov A-B ([7]; A-B) [%]	MDCK-MDR1: % Recov B-A ([7]; B-A) [%]
CN(c1ccc(-c2ccc(-n3ccnn3)cc2O)nn1)[C@H]1C[C@@H]2CC[C@@H](N2)[C@H]1F [Compound 61B, 2-(6-(((1R,2R,3S,5S)-2-fluoro-8-azabicyclo[3.2.1]octan-3-yl)(methyl)amino)pyridazin-3-yl)-5-(1H-1,2,3-triazol-1-yl)phenol]	0.01 to 15	0.01 to 15	0.01 to 15	0.01 to 15	3.79	45.8	12	98	93									
CN(c1ccc(-c2cc3oc(C(=O)N4CCC4)cc3cc2O)nn1)[C@H]1C[C@@H]2CC[C@@H](N2)[C@H]1F [Compound 112B, azetidin-1-yl(6-(6-(((1R,2R,3S,5S)-2-fluoro-8-azabicyclo[3.2.1]octan-3-yl)(methyl)amino)pyridazin-3-yl)-5-hydroxybenzofuran-2-yl)methanone]										0.01 to 15	0.01 to 15	0.01 to 15	16 to 50	0.5	47.3	95	98	81
CN(c1ccc(-c2cc3occc(=O)c3cc2O)nn1)[C@H]1C[C@@H]2CC[C@@H](N2)[C@H]1F [Compound 43B, 7-(6-(((1R,2R,3S,5S)-2-fluoro-8-azabicyclo[3.2.1]octan-3-yl)(methyl)amino)pyridazin-3-yl)-6-hydroxy-4H-chromen-4-one]	0.01 to 15	0.01 to 15	0.01 to 15	0.01 to 15	2.32	28.3	12	66	48									
CCN(c1ccc(-c2ccc(-c3cn[nH]c3)cc2O)nn1)[C@H]1C[C@@H]2CC[C@@H](N2)[C@H]1F [Compound 12B, 2-(6-(ethyl((1R,2R,3S,5S)-2-fluoro-8-azabicyclo[3.2.1]octan-3-yl)amino)pyridazin-3-yl)-5-(1H-pyrazol-4-yl)phenol]	0.01 to 15	0.01 to 15	0.01 to 15	0.01 to 15	0.7	30.1	43	57	52									
CN(c1ccc(-c2ccc(-c3nnco3)cc2O)nn1)[C@H]1C[C@@H]2CC[C@@H](N2)[C@H]1F [Compound 44B, 2-(6-(((1R,2R,3S,5S)-2-fluoro-8-azabicyclo[3.2.1]octan-3-yl)(methyl)amino)pyridazin-3-yl)-5-(1,3,4-oxadiazol-2-yl)phenol]	16 to 50	0.01 to 15	0.01 to 15	0.01 to 15	8.2	54.7	7	91	92									
CN(c1ccc(-c2cc3cnn(C)c3cc2O)nn1)[C@H]1C[C@@H]2CC[C@@H](N2)[C@H]1F [Compound 76B, 5-(6-(((1R,2R,3S,5S)-2-fluoro-8-azabicyclo[3.2.1]octan-3-yl)(methyl)amino)pyridazin-3-yl)-1-methyl-1H-indazol-6-ol]	0.01 to 15	16 to 50	0.01 to 15	16 to 50	3.97	60.3	15	84	93									
Cc1cc(=O)c2cc(O)c(-c3ccc(N(C)[C@@H]4C[C@H]5CC[C@H](N5)[C@@H]4F)nn3)cc2o1 [Compound 49A, 7-(6-(((1S,2S,3R,5R)-2-fluoro-8-azabicyclo[3.2.1]octan-3-yl)(methyl)amino)pyridazin-3-yl)-6-hydroxy-2-methyl-4H-chromen-4-one]	0.01 to 15	0.01 to 15	16 to 50	16 to 50	0.72	30.7	43	93	78									
CN(c1ccc(-c2ccc(-c3cnccn3)cc2O)nn1)[C@H]1C[C@@H]2CCC[C@@H](N2)[C@H]1F [Compound 24B, 2-(6-(((1R,2R,3S,5S)-2-fluoro-9-azabicyclo[3.3.1]nonan-3-yl)(methyl)amino)pyridazin-3-yl)-5-(pyrazin-2-yl)phenol]	0.01 to 15	0.01 to 15	0.01 to 15	0.01 to 15	5.99	33.8	6	73	91									
CN(c1ccc(-c2cc3ccn(C)c(=O)c3cc2O)nn1)[C@@H]1C[C@H]2CC[C@H](N2)[C@@H]1F [Compound 84A, 6-(6-(((1S,2S,3R,5R)-2-fluoro-8-azabicyclo[3.2.1]octan-3-yl)(methyl)amino)pyridazin-3-yl)-7-hydroxy-2-methylisoquinolin-1(2H)-one]	0.01 to 15	16 to 50	0.01 to 15	16 to 50	0.9	52	58	92	90									
CN(c1ccc(-c2cc3nccnc3cc2O)nn1)[C@H]1C[C@@H]2CC[C@@H](N2)[C@H]1F [Compound 88B, 7-(6-(((1R,2R,3S,5S)-2-fluoro-8-azabicyclo[3.2.1]octan-3-yl)(methyl)amino)pyridazin-3-yl)quinoxalin-6-ol]	0.01 to 15	16 to 50	16 to 50	16 to 50	6.88	50.5	7	84	93									
Cc1cnc(-c2ccc(-c3ccc(N(C)[C@H]4C[C@@H]5CCC[C@@H](N5)[C@H]4F)nn3)c(O)c2)o1 [Compound 16B, 2-(6-(((1R,2R,3S,5S)-2-fluoro-9-azabicyclo[3.3.1]nonan-3-yl)(methyl)amino)pyridazin-3-yl)-5-(5-methyloxazol-2-yl)phenol]	0.01 to 15	16 to 50	16 to 50	0.01 to 15	1.16	18.7	16	24	26									
